Target: CDK4/cyclinD1 (Homo sapiens, UniProt P11802)
Test: In vitro filtration assay for CDK4 inhibitory activity (pRb phosphorylation, [33P]-ATP)
Type: biochemical
Conditions: GST-pRb substrate, 1 μM unlabeled ATP, 25° C. 45 minutes, read-out: cdk4 filter (pIC50) (converted)
Method: (§1) Compounds of the present invention were tested in an in vitro filtration assay assessing CDK4 activity by means of its pRb-phosphorylation activity using [^33P]-ATP as phosphor donor. The radioactive phosphorylated pRb is then captured on filtermats and the incorporated [^33P] quantitated using a phosphorage storage screen.
The CDK4 kinase reaction is performed at 25° C. for 45 minutes in a 96-well microtiterplate. The 25 μl reaction volume contains 50 mM Hepes pH 7.5, 10 mM NaF, 10 mM MgCl2, 1 mM Na3VO4, 1 μM unlabeled ATP, 1 mM DTT, 0.5 μCi AT^33P, 0.76 μg/well GST-pRb, 50 ng CDK4/cyclinD1/well and 0.2% compound in 100% DMSO.
(§2) The reaction is stopped by adding 5 μl of a 3% phosphoric acid solution. 10 μl of the reaction mixture is then spotted onto a Filtermat P30 filter (Wallac) and washed 3 times for 5 min. in 75 mM phosphoric acid and 1 time for 5 min. in methanol prior to drying and quantification on the Typhoon (Amersham) using a phosphorage storage screen.
(§3) For each experiment, controls (containing enzyme (complex) and DMSO without compound), a blank incubation (containing DMSO but no enzyme (complex) or compound) and samples (containing enzyme (complex) and compound dissolved in DMSO) were run in parallel. All compounds tested were dissolved and eventually further diluted in DMSO. […] In each test, the blank value was subtracted from both the control and the sample values. The control sample represented maximal enzyme activity. For each sample, the amount of cpm was expressed as a percentage of the mean cpm value of the controls. When appropriate, IC50-values (concentration of the drug, needed to reduce the enzyme activity to 50% of the control) were computed using linear interpolation between the experimental points just above and below the 50% level. Herein the effects of test compounds are expressed as pIC50 (the negative log value of the IC50-value).

Sequence of CDK4/cyclinD1 (P11802 whole entry): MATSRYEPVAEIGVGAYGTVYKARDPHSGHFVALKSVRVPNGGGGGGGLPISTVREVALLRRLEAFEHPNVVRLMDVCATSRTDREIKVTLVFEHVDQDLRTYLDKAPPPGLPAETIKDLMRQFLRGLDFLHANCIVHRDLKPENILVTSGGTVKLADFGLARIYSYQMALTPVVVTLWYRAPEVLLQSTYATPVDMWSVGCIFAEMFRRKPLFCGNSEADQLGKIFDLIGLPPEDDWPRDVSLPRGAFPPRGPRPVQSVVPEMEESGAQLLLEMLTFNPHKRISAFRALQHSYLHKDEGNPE
Sequence of CDK4/cyclinD1 (P24385 whole entry partner): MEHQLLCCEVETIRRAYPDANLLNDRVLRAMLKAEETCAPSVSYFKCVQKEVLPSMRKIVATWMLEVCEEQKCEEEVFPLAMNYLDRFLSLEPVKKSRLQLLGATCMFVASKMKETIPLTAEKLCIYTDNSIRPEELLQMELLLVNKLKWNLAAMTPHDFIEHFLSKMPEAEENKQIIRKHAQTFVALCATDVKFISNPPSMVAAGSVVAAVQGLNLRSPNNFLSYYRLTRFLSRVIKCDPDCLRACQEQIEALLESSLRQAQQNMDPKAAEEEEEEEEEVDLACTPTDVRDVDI

IC50 [µM] | Structure (SMILES)
> 10 | CC(C)(C)OC(=O)N1CCC(N(Cc2ccc(Nc3ncc4cnn(C5CCCCC5)c4n3)cc2)C(=O)OC(C)(C)C)CC1 [compound 61]
> 10 | COCCCN1CCN(Cc2ccc(N(C(=O)OC(C)(C)C)c3ncc4cnn(C5CCCCC5)c4n3)cc2)CC1 [compound 42]
2 | CN1CCN(Cc2ccc(Nc3ncc4[nH]c(=O)n(C5CCCCC5)c4n3)cc2)CC1 [compound 79]
2.51 | O=c1[nH]c2cnc(Nc3ccc(CNC4CCNCC4)cc3)nc2n1C1CCCCC1 [compound 86]
> 10 | CC(C)(C)OC(=O)N(c1ccc(CNCCN2CCOCC2)cc1)c1ncc2cnn(C3CCOCC3)c2n1 [compound 70]
0.0631 | NS(=O)(=O)N1CCN(Cc2ccc(Nc3ncc4cnn(C5CCCCC5)c4n3)cc2)CC1 [compound 34]
1.58 | CN1CCN(Cc2ccc(N(C(=O)OC(C)(C)C)c3ncc4cnn([C@H]5C[C@@H]6CC[C@H]5C6)c4n3)cc2)CC1 [compound 39]
0.0158 | c1cc(N2CCNCC2)ccc1Nc1ncc2cnn(C3CCCCC3)c2n1 [compound 26]
0.0126 | OC1CCN(c2ccc(Nc3ncc4cnn(C5CCCCC5)c4n3)cc2)CC1 [compound 20]
> 10 | CC(C)(C)OC(=O)N(c1ccc(CN2CCN(CCO)CC2)cc1)c1ncc2cnn(C3CCOCC3)c2n1 [compound 55]
0.0631 | CN1CCN(Cc2ccc(Nc3ncc4cnn([C@H]5C[C@@H]6CC[C@H]5C6)c4n3)cc2)CC1 [compound 40]
2.51 | c1cc(Nc2ncc3cnn(C4CCOCC4)c3n2)ccc1CNCCN1CCOCC1 [compound 71]
0.0794 | COCCCN1CCC(NCc2ccc(Nc3ncc4cnn(C5CCCCC5)c4n3)cc2)CC1 [compound 77]
0.126 | CC(C)(O)CN1CCN(c2ccc(Nc3ncc4cnn(C5CCCCC5)c4n3)cc2)CC1 [compound 24]
> 10 | CN1CCN(Cc2ccc(N(C(=O)OC(C)(C)C)c3ncc4cnn(C5CCOCC5)c4n3)cc2)CC1 [compound 48]
0.631 | O=C(NCCN1CCOCC1)c1ccc(Nc2ncc3cnn(C4CCCCC4)c3n2)cc1 [compound 96]
0.00316 | CN1CCN(Cc2ccc(Nc3ncc4cnn(C5CCCCC5)c4n3)cc2)CC1 [Co. No. 2]
0.501 | c1ccc(N2CCN(c3ccc(Nc4ncc5cnn(C6CCCCC6)c5n4)cc3)CC2)nc1 [compound 22]

Target: T1, AURORA A (Homo sapiens, UniProt O14965)
T1 sequence (O14965 1-403): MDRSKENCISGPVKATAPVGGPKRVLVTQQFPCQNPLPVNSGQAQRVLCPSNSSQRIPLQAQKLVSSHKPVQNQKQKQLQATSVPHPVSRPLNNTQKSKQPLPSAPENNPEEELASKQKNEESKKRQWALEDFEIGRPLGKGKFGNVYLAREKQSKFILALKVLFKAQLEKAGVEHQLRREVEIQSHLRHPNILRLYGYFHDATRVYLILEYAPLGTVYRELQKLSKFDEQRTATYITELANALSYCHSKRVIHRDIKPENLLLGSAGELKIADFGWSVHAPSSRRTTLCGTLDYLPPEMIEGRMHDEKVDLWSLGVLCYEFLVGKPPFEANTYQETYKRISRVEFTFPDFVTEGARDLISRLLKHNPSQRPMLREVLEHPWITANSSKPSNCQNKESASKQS
Test: In vitro filtration assay for AURORA A inhibitory activity
Type: biochemical
Conditions: Kemptide substrate, 1 μM unlabeled ATP, 25° C. 40 minutes, read-out: Aurora A see C.2 (pIC50) (converted)
Method: as §1, with “AURORA A” for “CDK4”, “substrate-phosphorylation” for “pRb-phosphorylation”, “substrate” for “pRb”
The Aurora-A kinase reaction is performed at 25° C. for 40 minutes in a 96-well microtiterplate. The 25 μl reaction volume contains 12 mM MOPS pH 7, 0.4 mM EDTA, 0.002% Brij35, 1% glycerol, 0.02% beta-mercapto-ethanol, 0.2 mg/ml BSA, 1 μM unlabeled ATP, […] [^33P]-ATP, 200 μM Kemptide, 3 ng Aurora A/well and 0.2% compound in 100% DMSO.
as §2, §3

IC50 [µM] | Structure (SMILES)
1.26 | CC(C)(C)OC(=O)N1CCC(N(Cc2ccc(Nc3ncc4cnn(C5CCCCC5)c4n3)cc2)C(=O)OC(C)(C)C)CC1 [compound 61]
> 10 | COCCCN1CCN(Cc2ccc(N(C(=O)OC(C)(C)C)c3ncc4cnn(C5CCCCC5)c4n3)cc2)CC1 [compound 42]
> 10 | CN1CCN(Cc2ccc(Nc3ncc4[nH]c(=O)n(C5CCCCC5)c4n3)cc2)CC1 [compound 79]
5.01 | O=c1[nH]c2cnc(Nc3ccc(CNC4CCNCC4)cc3)nc2n1C1CCCCC1 [compound 86]
> 10 | CC(C)(C)OC(=O)N(c1ccc(CNCCN2CCOCC2)cc1)c1ncc2cnn(C3CCOCC3)c2n1 [compound 70]
0.158 | NS(=O)(=O)N1CCN(Cc2ccc(Nc3ncc4cnn(C5CCCCC5)c4n3)cc2)CC1 [compound 34]
6.31 | CN1CCN(Cc2ccc(N(C(=O)OC(C)(C)C)c3ncc4cnn([C@H]5C[C@@H]6CC[C@H]5C6)c4n3)cc2)CC1 [compound 39]
0.251 | c1cc(N2CCNCC2)ccc1Nc1ncc2cnn(C3CCCCC3)c2n1 [compound 26]
0.501 | OC1CCN(c2ccc(Nc3ncc4cnn(C5CCCCC5)c4n3)cc2)CC1 [compound 20]
> 10 | CC(C)(C)OC(=O)N(c1ccc(CN2CCN(CCO)CC2)cc1)c1ncc2cnn(C3CCOCC3)c2n1 [compound 55]
0.316 | CN1CCN(Cc2ccc(Nc3ncc4cnn([C@H]5C[C@@H]6CC[C@H]5C6)c4n3)cc2)CC1 [compound 40]
5.01 | c1cc(Nc2ncc3cnn(C4CCOCC4)c3n2)ccc1CNCCN1CCOCC1 [compound 71]
> 10 | COCCCN1CCC(NCc2ccc(Nc3ncc4cnn(C5CCCCC5)c4n3)cc2)CC1 [compound 77]
0.251 | CC(C)(O)CN1CCN(c2ccc(Nc3ncc4cnn(C5CCCCC5)c4n3)cc2)CC1 [compound 24]
> 10 | CN1CCN(Cc2ccc(N(C(=O)OC(C)(C)C)c3ncc4cnn(C5CCOCC5)c4n3)cc2)CC1 [compound 48]
0.1 | O=C(NCCN1CCOCC1)c1ccc(Nc2ncc3cnn(C4CCCCC4)c3n2)cc1 [compound 96]
0.501 | CN1CCN(Cc2ccc(Nc3ncc4cnn(C5CCCCC5)c4n3)cc2)CC1 [Co. No. 2]
0.0398 | c1ccc(N2CCN(c3ccc(Nc4ncc5cnn(C6CCCCC6)c5n4)cc3)CC2)nc1 [compound 22]

Target: AURORA B (Homo sapiens, UniProt Q96GD4)
Test: In vitro filtration assay for AURORA B inhibitory activity
Type: biochemical
Conditions: peptide (C(LRRWSLG)×4), 1 μM unlabeled ATP, 25° C. 40 minutes, read-out: Aurora B see C.3 (pIC50) (converted)
Method: as §1, with “AURORA B” for “CDK4”, “substrate-phosphorylation” for “pRb-phosphorylation”, “substrate” for “pRb”
The Aurora-B kinase reaction is performed at 25° C. for 40 minutes in a 96-well microtiterplate. The 25 μl reaction volume contains 60 mM Hepes pH 7.5, 3 mM MgCl2, 3 mM MnCl2, 3 μM Na3VO4, 50 μg/ml PEG20000, 1 μM unlabeled ATP, 1 mM DTT, 0.2 μCi AT^33P, 0.25 μg/well peptide (C(LRRWSLG)×4),100 ng Aurora-B/well and 0.2% compound in 100% DMSO. The reaction is stopped by adding 5 μl of a 3% phosphoric acid solution. 10 μl of the reaction mixture is then spotted onto a Filtermat P30 filter (Wallac) and washed 3 times for 5 min. in 75 mM phosphoric acid and 1 time for 5 min. in methanol prior to drying and quantification on the Typhoon (Amersham) using a phosphorage storage screen.
as §3

Sequence of AURORA B (Q96GD4 whole entry): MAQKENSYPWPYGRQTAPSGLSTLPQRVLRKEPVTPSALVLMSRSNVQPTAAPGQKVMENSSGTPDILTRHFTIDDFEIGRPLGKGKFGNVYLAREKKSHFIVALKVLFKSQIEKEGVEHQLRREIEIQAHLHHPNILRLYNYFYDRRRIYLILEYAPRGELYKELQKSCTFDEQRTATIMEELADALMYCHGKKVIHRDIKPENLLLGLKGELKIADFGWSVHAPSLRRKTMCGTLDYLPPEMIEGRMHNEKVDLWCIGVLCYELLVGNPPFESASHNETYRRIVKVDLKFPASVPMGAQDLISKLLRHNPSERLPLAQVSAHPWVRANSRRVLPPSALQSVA

IC50 [µM] | Structure (SMILES)
> 10 | CC(C)(C)OC(=O)N1CCC(N(Cc2ccc(Nc3ncc4cnn(C5CCCCC5)c4n3)cc2)C(=O)OC(C)(C)C)CC1 [compound 61]
> 10 | COCCCN1CCN(Cc2ccc(N(C(=O)OC(C)(C)C)c3ncc4cnn(C5CCCCC5)c4n3)cc2)CC1 [compound 42]
> 10 | CN1CCN(Cc2ccc(Nc3ncc4[nH]c(=O)n(C5CCCCC5)c4n3)cc2)CC1 [compound 79]
> 10 | O=c1[nH]c2cnc(Nc3ccc(CNC4CCNCC4)cc3)nc2n1C1CCCCC1 [compound 86]
> 10 | CC(C)(C)OC(=O)N(c1ccc(CNCCN2CCOCC2)cc1)c1ncc2cnn(C3CCOCC3)c2n1 [compound 70]
> 10 | NS(=O)(=O)N1CCN(Cc2ccc(Nc3ncc4cnn(C5CCCCC5)c4n3)cc2)CC1 [compound 34]
> 10 | CN1CCN(Cc2ccc(N(C(=O)OC(C)(C)C)c3ncc4cnn([C@H]5C[C@@H]6CC[C@H]5C6)c4n3)cc2)CC1 [compound 39]
1.26 | c1cc(N2CCNCC2)ccc1Nc1ncc2cnn(C3CCCCC3)c2n1 [compound 26]
> 10 | OC1CCN(c2ccc(Nc3ncc4cnn(C5CCCCC5)c4n3)cc2)CC1 [compound 20]
> 10 | CC(C)(C)OC(=O)N(c1ccc(CN2CCN(CCO)CC2)cc1)c1ncc2cnn(C3CCOCC3)c2n1 [compound 55]
0.398 | CN1CCN(Cc2ccc(Nc3ncc4cnn([C@H]5C[C@@H]6CC[C@H]5C6)c4n3)cc2)CC1 [compound 40]
> 10 | c1cc(Nc2ncc3cnn(C4CCOCC4)c3n2)ccc1CNCCN1CCOCC1 [compound 71]
2 | COCCCN1CCC(NCc2ccc(Nc3ncc4cnn(C5CCCCC5)c4n3)cc2)CC1 [compound 77]
3.16 | CC(C)(O)CN1CCN(c2ccc(Nc3ncc4cnn(C5CCCCC5)c4n3)cc2)CC1 [compound 24]
> 10 | CN1CCN(Cc2ccc(N(C(=O)OC(C)(C)C)c3ncc4cnn(C5CCOCC5)c4n3)cc2)CC1 [compound 48]
1.26 | O=C(NCCN1CCOCC1)c1ccc(Nc2ncc3cnn(C4CCCCC4)c3n2)cc1 [compound 96]
> 10 | CN1CCN(Cc2ccc(Nc3ncc4cnn(C5CCCCC5)c4n3)cc2)CC1 [Co. No. 2]
> 10 | c1ccc(N2CCN(c3ccc(Nc4ncc5cnn(C6CCCCC6)c5n4)cc3)CC2)nc1 [compound 22]

From US7947695B2, “5-membered annelated heterocyclic pyrimidines as kinase inhibitors” (Janssen Pharmaceutica NV, priority 2005, dated 2011)
